Reference: US12594276B2, “Inhibitors of human immunodeficiency virus replication” (ViiV Healthcare UK (No.5) Limited, priority 2024, dated 2026)

Experiments:
[1] = Compound cytotoxicity, XTT-based colorimetric assay; type: cell-based; conditions: human; uninfected MT2 cells, day 4, XTT; read-out: CC50
In short: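 Follows the antiviral assay procedure, but with uninfected MT2 cells. On day 4, cell viability is measured by XTT-based colorimetry, giving CC50 values.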

[2] = system: recombinant NL4-3 virus (nef section replaced with Renilla luciferase gene) in MT-2 cells; assay: HIV cell culture assay (antiviral activity, luciferase readout); type: cell-based; conditions: Renilla, NL43, MT-2 cells infected for 4-5 days with recombinant NL4-3 Renilla luciferase virus
In short: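 Compound activity was measured as reduction of luciferase in MT-2 cells infected for 4-5 days with serially diluted compound present. EC50 values were calculated with the median effect equation.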

SMILES	CC50 at 4 days [1]	EC50 [2]
CS(=O)(=O)Nc1nn(CCN2CCCC(F)(F)C2)c2c(-n3c([C@H](Cc4cc(F)cc(F)c4)NC(=O)Cn4nc(C(F)F)c5c4C(F)(F)[C@@H]4C[C@H]54)nc4nc(C5CCC(F)(F)CC5)cc(C(F)F)c4c3=O)ccc(Cl)c12 (atropisomer, axis not shown; (P)) [Example 292, N-[(1S)-1-[(3P)-3-{4-chloro-1-[2-(3,3-difluoropiperidin-1-yl)ethyl]-3-methanesulfonamido-1H-indazol-7-yl}-7-(4,4-difluorocyclohexyl)-5-(difluoromethyl)-4-oxo-3H,4H-pyrido[2,3-d]pyrimidin-2-yl]-2-(3,5-difluorophenyl)ethyl]-2-[(2S,4R)-9-(difluoromethyl)-5,5-difluoro-7,8-diazatricyclo[4.3.0.0^2,^4]nona-1(6),8-dien-7-yl]acetamide]	> 50 nM	0.016 nM
COCCCn1nc(NS(C)(=O)=O)c2c(Cl)ccc(-n3c([C@H](Cc4cc(F)cc(F)c4)NC(=O)Cn4nc(C(F)F)c5c4C(F)(F)[C@@H]4C[C@H]54)nc4nc(C5CCC(F)(F)CC5)cc(NCCC5CCO5)c4c3=O)c21 (stereo partly drawn) [Example 564, N-[(1S)-1-[(3P)-3-[4-chloro-3-methanesulfonamido-1-(3-methoxypropyl)-1H-indazol-7-yl]-7-(4,4-difluorocyclohexyl)-5-{[2-(oxetan-2-yl)ethyl]amino}-4-oxo-3H,4H-pyrido[2,3-d]pyrimidin-2-yl]-2-(3,5-difluorophenyl)ethyl]-2-[(2S,4R)-9-(difluoromethyl)-5,5-difluoro-7,8-diazatricyclo[4.3.0.0^2,^4]nona-1(6),8-dien-7-yl]acetamide]	> 20 nM	0.012 nM
CS(=O)(=O)Nc1nn(CCN2CCC(F)(C(F)(F)F)C2)c2c(-n3c([C@H](Cc4cc(F)cc(F)c4)NC(=O)Cn4nc(C(F)F)c5c4C(F)(F)[C@@H]4C[C@H]54)nc4nc(C5CCC(F)(F)CC5)ccc4c3=O)ccc(Cl)c12 (stereo partly drawn) [Example 191, N-[(1S)-1-[(3P)-3-(4-chloro-1-{2-[3-fluoro-3-(trifluoromethyl)pyrrolidin-1-yl]ethyl}-3-methanesulfonamido-1H-indazol-7-yl)-7-(4,4-difluorocyclohexyl)-4-oxo-3H,4H-pyrido[2,3-d]pyrimidin-2-yl]-2-(3,5-difluorophenyl)ethyl]-2-[(2S,4R)-9-(difluoromethyl)-5,5-difluoro-7,8-diazatricyclo[4.3.0.0^2,^4]nona-1(6),8-dien-7-yl]acetamide]	> 50 nM	0.024 nM
Cc1cc(C2(F)CCC(F)(F)CC2)nc2nc([C@H](Cc3cc(F)cc(F)c3)NC(=O)Cn3nc(C4CC4)c4c3C[C@@H]3C[C@H]43)n(-c3ccc(Cl)c4c(NS(C)(=O)=O)nn(CCN5CCOC(C)(C)C5)c34)c(=O)c12 (atropisomer, axis not shown; (P)) [Example 585, N-[(1S)-1-[(3P)-3-{4-chloro-1-[2-(2,2-dimethylmorpholin-4-yl)ethyl]-3-methanesulfonamido-1H-indazol-7-yl}-5-methyl-4-oxo-7-(1,4,4-trifluorocyclohexyl)-3H,4H-pyrido[2,3-d]pyrimidin-2-yl]-2-(3,5-difluorophenyl)ethyl]-2-[(2S,4S)-9-cyclopropyl-7,8-diazatricyclo[4.3.0.0^2,^4]nona-1(6),8-dien-7-yl]acetamide]	> 20 nM	0.012 nM
COCCCn1nc(NS(C)(=O)=O)c2c(Cl)ccc(-n3c([C@H](Cc4cc(F)cc(F)c4)NC(=O)Cn4nc(C(F)F)c5c4C(F)(F)[C@@H]4C[C@H]54)nc4nc(C5CCC(F)(F)CC5)cc(NCCN5CCCC5)c4c3=O)c21 (atropisomer, axis not shown; (P)) [Example 429, N-[(1S)-1-[(3P)-3-[4-chloro-3-methanesulfonamido-1-(3-methoxypropyl)-1H-indazol-7-yl]-7-(4,4-difluorocyclohexyl)-4-oxo-5-{[2-(pyrrolidin-1-yl)ethyl]amino}-3H,4H-pyrido[2,3-d]pyrimidin-2-yl]-2-(3,5-difluorophenyl)ethyl]-2-[(2S,4R)-9-(difluoromethyl)-5,5-difluoro-7,8-diazatricyclo[4.3.0.0^2,^4]nona-1(6),8-dien-7-yl]acetamide]	> 20 nM	0.019 nM
COCCCn1nc(NS(C)(=O)=O)c2c(Cl)ccc(-n3c([C@H](Cc4cc(F)cc(F)c4)NC(=O)Cn4nc(C(F)F)c5c4C(F)(F)[C@@H]4C[C@H]54)nc4nc(C5CCC(F)(F)CC5)cc(NCC(C)(C)N5CCOCC5)c4c3=O)c21 (atropisomer, axis not shown; (P)) [Example 546, N-[(1S)-1-[(3P)-3-[4-chloro-3-methanesulfonamido-1-(3-methoxypropyl)-1H-indazol-7-yl]-7-(4,4-difluorocyclohexyl)-5-{[2-methyl-2-(morpholin-4-yl)propyl]amino}-4-oxo-3H,4H-pyrido[2,3-d]pyrimidin-2-yl]-2-(3,5-difluorophenyl)ethyl]-2-[(2S,4R)-9-(difluoromethyl)-5,5-difluoro-7,8-diazatricyclo[4.3.0.0^2,^4]nona-1(6),8-dien-7-yl]acetamide]	> 20 nM	0.017 nM
COCCCn1nc(NS(C)(=O)=O)c2c(Cl)ccc(-n3c([C@H](Cc4cc(F)cc(F)c4)NC(=O)Cn4nc(C(F)F)c5c4C(F)(F)[C@@H]4C[C@H]54)nc4nc(C5CCC(F)(F)CC5)cc(NCCN5CCN(C)CC5)c4c3=O)c21 (atropisomer, axis not shown; (P)) [Example 535, N-[(1S)-1-[(3P)-3-[4-chloro-3-methanesulfonamido-1-(3-methoxypropyl)-1H-indazol-7-yl]-7-(4,4-difluorocyclohexyl)-5-{[2-(4-methylpiperazin-1-yl)ethyl]amino}-4-oxo-3H,4H-pyrido[2,3-d]pyrimidin-2-yl]-2-(3,5-difluorophenyl)ethyl]-2-[(2S,4R)-9-(difluoromethyl)-5,5-difluoro-7,8-diazatricyclo[4.3.0.0^2,^4]nona-1(6),8-dien-7-yl]acetamide]	> 20 nM	0.057 nM
Cc1cc(C2(C)CCC(F)(F)CC2)nc2nc([C@H](Cc3cc(F)cc(F)c3)NC(=O)Cn3nc(C4CC4)c4c3C[C@@H]3C[C@H]43)n(-c3ccc(Cl)c4c(NS(C)(=O)=O)nn(CCN5CC(C)(C)OC(C)(C)C5)c34)c(=O)c12 (atropisomer, axis not shown; (P)) [Example 506, N-[(1S)-1-[(3P)-3-{4-chloro-3-methanesulfonamido-1-[2-(2,2,6,6-tetramethylmorpholin-4-yl)ethyl]-1H-indazol-7-yl}-7-(4,4-difluoro-1-methylcyclohexyl)-5-methyl-4-oxo-3H,4H-pyrido[2,3-d]pyrimidin-2-yl]-2-(3,5-difluorophenyl)ethyl]-2-[(2S,4S)-9-cyclopropyl-7,8-diazatricyclo[4.3.0.0^2,^4]nona-1(6),8-dien-7-yl]acetamide]	> 20 nM	0.027 nM
Cc1cc(C2CCC(F)(F)CC2)nc2nc([C@H](Cc3cc(F)cc(F)c3)NC(=O)Cn3nc(C(F)F)c4c3C(F)(F)[C@@H]3C[C@H]43)n(-c3ccc(Cl)c4c(NS(C)(=O)=O)nn(C[C@@H](C)N5C[C@H](F)C[C@H](F)C5)c34)c(=O)c12 (atropisomer, axis not shown; (P)) [Example 683, N-[(1S)-1-[(3P)-3-{4-chloro-1-[(2R)-2-[(3R,5S)-3,5-difluoropiperidin-1-yl]propyl]-3-methanesulfonamido-1H-indazol-7-yl}-7-(4,4-difluorocyclohexyl)-5-methyl-4-oxo-3H,4H-pyrido[2,3-d]pyrimidin-2-yl]-2-(3,5-difluorophenyl)ethyl]-2-[(2S,4R)-9-(difluoromethyl)-5,5-difluoro-7,8-diazatricyclo[4.3.0.0^2,^4]nona-1(6),8-dien-7-yl]acetamide]	> 20 nM	0.006 nM
Cc1cc(C2(F)CCC(F)(F)CC2)nc2nc([C@H](Cc3cc(F)cc(F)c3)NC(=O)Cn3nc(C4CC4)c4c3C[C@@H]3C[C@H]43)n(-c3ccc(Cl)c4c(NS(C)(=O)=O)nn(C[C@H](C)N5C[C@@H](C)O[C@@H](C)C5)c34)c(=O)c12 (relative stereo) [Example 722, N-[(1S)-1-[(3P)-3-{4-chloro-1-[(2S)-2-[(2R,6S)-2,6-dimethylmorpholin-4-yl]propyl]-3-methanesulfonamido-1H-indazol-7-yl}-5-methyl-4-oxo-7-(1,4,4-trifluorocyclohexyl)-3H,4H-pyrido[2,3-d]pyrimidin-2-yl]-2-(3,5-difluorophenyl)ethyl]-2-[(2R*,4R*)-9-cyclopropyl-7,8-diazatricyclo[4.3.0.0^2,^4]nona-1(6),8-dien-7-yl]acetamide]	> 20 nM	0.007 nM
Cc1cc(C2CCC(F)(F)CC2)nc2nc([C@H](Cc3cc(F)cc(F)c3)NC(=O)Cn3nc(C4CC4)c4c3C[C@@H]3C[C@H]43)n(-c3ccc(Cl)c4c(NS(C)(=O)=O)nn(CCN5C[C@H]6CC[C@@H](C5)O6)c34)c(=O)c12 (atropisomer, axis not shown; (P)) [Example 4, N-[(1S)-1-[(3P)-3-(4-chloro-3-methanesulfonamido-1-{2-[(1R,5S)-8-oxa-3-azabicyclo[3.2.1]octan-3-yl]ethyl}-1H-indazol-7-yl)-7-(4,4-difluorocyclohexyl)-5-methyl-4-oxo-3H,4H-pyrido[2,3-d]pyrimidin-2-yl]-2-(3,5-difluorophenyl)ethyl]-2-[(2S,4S)-9-cyclopropyl-7,8-diazatricyclo[4.3.0.0^2,^4]nona-1(6),8-dien-7-yl]acetamide]	> 50 nM	0.007 nM
